In patent EP0788796A1, “URICOSURIC AGENT” (priority 1995, dated 1997):
Read-outs that look alike come from different tables or passages of the source.

Assays:
[1] = Uric acid excreting and diuretic actions in rats; format: in vivo, Wistar rats; conditions: for response vs control in vivo at 300 mg/kg / response vs control in vivo at 1000 mg/kg: Rattus norvegicus, female Wistar rats, urine collected up to 5 h, relative value with control = 100; for response vs control in vivo at 300 mg/kg: 300 mg/kg oral; for response vs control in vivo at 1000 mg/kg: 1000 mg/kg oral; for urine volume: result in words, summary of Table 1
Procedure: Three female Wistar rats (4-week old) in each group were administered orally with 300 or 1000 mg/kg of a test compound in a volume of 10 ml/kg as suspended in an aqueous solution of 0.5% carboxymethylcellulose sodium or 5% gum arabic; immediately thereafter, the animals were loaded orally with 25 ml/kg of physiological saline and the urine was collected up to 5 h after the administration of the test compound. The collected urine was immediately measured quantitatively and the urinary concentration of uric acid was measured by a urikase method in accordance with the procedure of Kabasakalian et al. [Kabasakalian, P. et al.: Clin Chem., 19, 522-524 (1973)] and the urinary excretion of uric acid was calculated. […]

Acute toxicity test = format: in vivo; conditions: oral 100 - 1000 mg/kg, female Wistar rats, observed over 24 h
Procedure: Three female Wistar rats (4-week old) in each group were administered orally with 100 - 1000 mg/kg of a test compound in a volume of 10 ml/kg as suspended in an aqueous solution of 0.5% carboxymethylcellulose sodium or 5% gum arabic and were subsequently observed over 24 h. Compounds 1 - 6 were as identified above.

[2] = Uric acid excreting and diuretic actions in rats; format: in vivo; conditions: Rattus norvegicus; 30 mg/kg oral, female Wistar rats, urine collected up to 5 h, relative value with control = 100; read-out: Urine Volume (%)
[3] = read-out: Urinary excretion of uric acid (%)

For `Cc1cc(S(=O)(=O)N2CC(=O)NC2=O)c(C)s1` [Compound 4, 1-(2,5-dimethylthien-3-ylsulfonyl)hydantoin], which response vs control in vivo at 300 mg/kg [1, 3] is on record?
The response vs control in vivo at 300 mg/kg was 104%.

What about the response vs control in vivo at 300 mg/kg ([1]; read-out: Urine Volume (%)) of the same compound?
The response vs control in vivo at 300 mg/kg was 111%.

And the response vs control in vivo at 1000 mg/kg [1, 3]?
Its response vs control in vivo at 1000 mg/kg is 145%.

And the response vs control in vivo at 1000 mg/kg ([1]; read-out: Urine Volume (%))?
The response vs control in vivo at 1000 mg/kg was 207%.

What about the “Acute toxicity (Minimal dose causing death: mg/kg)” value (shortened to “Acute toxicity”) (Acute toxicity test) of the same compound?
The value was >1000 (no death case at 1000) mg/kg.

With `CCCN(CCC)S(=O)(=O)c1ccc(C(=O)O)cc1` [Probenecid, probenecid, reference compound] as the compound, how does the response vs control in vivo at 300 mg/kg [1, 3] read?
Its response vs control in vivo at 300 mg/kg is 78%.

And the response vs control in vivo at 300 mg/kg ([1]; read-out: Urine Volume (%))?
The response vs control in vivo at 300 mg/kg was 60%.

What about the response vs control in vivo at 1000 mg/kg [1, 3] of the same compound?
Its response vs control in vivo at 1000 mg/kg is 167%.

And the response vs control in vivo at 1000 mg/kg ([1]; read-out: Urine Volume (%))?
Its response vs control in vivo at 1000 mg/kg is 20%.

And the urine volume [1]?
The urine volume was “significantly decreased the urine volume”.

Which results are given for `O=C1CN(S(=O)(=O)C2Cc3ccccc3C2)C(=O)N1` [Compound 5, 1-(indan-2-ylsulfonyl)hydantoin]?
response vs control in vivo at 300 mg/kg [1, 3]: 102%; response vs control in vivo at 300 mg/kg ([1]; read-out: Urine Volume (%)): 135%; response vs control in vivo at 1000 mg/kg [1, 3]: 144%; response vs control in vivo at 1000 mg/kg ([1]; read-out: Urine Volume (%)): 144%; Acute toxicity (Minimal dose causing death: mg/kg) (Acute toxicity test): >1000 (no death case at 1000) mg/kg

For `NS(=O)(=O)c1cc(C(=O)O)c(NCc2ccco2)cc1Cl` [Furosemide, furosemide, reference compound], which urine volume [1] is on record?
Its urine volume is “an increase in the urine volume was observed”.

And the response vs control in vivo at 30 mg/kg [2]?
The response vs control in vivo at 30 mg/kg was 215%.

What does the source list for `O=C1CN(S(=O)(=O)c2cc(Cl)ccc2Cl)C(=O)N1` [Compound 6, 1-(2,5-dichlorophenylsulfonyl)hydantoin]?
response vs control in vivo at 300 mg/kg [1, 3]: 96%; response vs control in vivo at 300 mg/kg ([1]; read-out: Urine Volume (%)): 151%; response vs control in vivo at 1000 mg/kg [1, 3]: 151%; response vs control in vivo at 1000 mg/kg ([1]; read-out: Urine Volume (%)): 223%; Acute toxicity (Minimal dose causing death: mg/kg) (Acute toxicity test): >1000 (no death case at 1000) mg/kg

For `O=C1CN(S(=O)(=O)C2CCCCC2)C(=O)N1` [Compound 1, 1-(cyclohexylsulfonyl)hydantoin], which response vs control in vivo at 300 mg/kg [1, 3] is on record?
The response vs control in vivo at 300 mg/kg was 116%.

What about the response vs control in vivo at 300 mg/kg ([1]; read-out: Urine Volume (%)) of the same compound?
Its response vs control in vivo at 300 mg/kg is 96%.

What about the response vs control in vivo at 1000 mg/kg [1, 3] of the same compound?
The response vs control in vivo at 1000 mg/kg was 155%.

And the response vs control in vivo at 1000 mg/kg ([1]; read-out: Urine Volume (%))?
The response vs control in vivo at 1000 mg/kg was 124%.

What about the “Acute toxicity” value (Acute toxicity test) of the same compound?
The value was >1000 (no death case at 1000) mg/kg.

What does the source list for `O=C1CN(S(=O)(=O)C2CCCCCCC2)C(=O)N1` [Compound 3, 1-(cyclooctylsulfonyl)hydantoin]?
response vs control in vivo at 300 mg/kg [1, 3]: 103%; response vs control in vivo at 300 mg/kg ([1]; read-out: Urine Volume (%)): 109%; response vs control in vivo at 1000 mg/kg [1, 3]: 245%; response vs control in vivo at 1000 mg/kg ([1]; read-out: Urine Volume (%)): 95%; Acute toxicity (Minimal dose causing death: mg/kg) (Acute toxicity test): >1000 (no death case at 1000) mg/kg

Which response vs control in vivo at 300 mg/kg [1, 3] does the source give for `O=C1CN(S(=O)(=O)C2CCCCCC2)C(=O)N1` [Compound 2, 1-(cycloheptylsulfonyl)hydantoin] here?
Its response vs control in vivo at 300 mg/kg is 152%.

And the response vs control in vivo at 300 mg/kg ([1]; read-out: Urine Volume (%))?
The response vs control in vivo at 300 mg/kg was 159%.

What about the response vs control in vivo at 1000 mg/kg [1, 3] of the same compound?
Its response vs control in vivo at 1000 mg/kg is 256%.

And the response vs control in vivo at 1000 mg/kg ([1]; read-out: Urine Volume (%))?
Its response vs control in vivo at 1000 mg/kg is 170%.

What about the “Acute toxicity” value (Acute toxicity test) of the same compound?
The value was >1000 (no death case at 1000) mg/kg.
